In patent US20210238169A1, “PROCESS FOR PREPARING A COMPOUND OF FORMULA (XIII)” (PULMOCIDE LIMITED, priority 2014, published 2021):
Converted amounts (≈) assume the structure as drawn.

Legend:
Format in all cases: in vivo
[1] = test system: Aspergillus fumigatus (ATCC 13073); assay: Body weight loss of Aspergillus fumigatus infected, immunocompromised, neutropenic mice; conditions: 0.4 mg/mL intra-nasally, prophylactic; for Body weight loss caused by infection with A. fumigatus: % weight loss compared with day 0
Experimental: (§1) Aspergillus fumigatus (ATCC 13073 [strain: NIH 5233], American Type Culture Collection, Manassas, Va., USA) was grown on Malt agar (Nissui Pharmaceutical, Tokyo, Japan) plates for 6-7 days at RT (24±1° C.). Spores were aseptically dislodged from the agar plates and suspended in sterile distilled water with 0.05% Tween 80 and 0.1% agar. On the day of infection, spore counts were assessed by haemocytometer and the inoculum was adjusted to obtain a concentration of 1.67×10^8 spores mL^−1 of physiological saline.
(§2) On day 0, animals were infected with the spore suspension (35 μL intra-nasally).
(§3) Test compounds were administered intra-nasally (35 μL of a suspension of 0.08-2.00 mg/mL in physiological saline) once daily, 30 min before infection on day 0 and then on days 1, 2 and 3 (representing prophylactic treatment) or on days 1, 2 and 3 only (representing therapeutic treatment). For extended prophylactic treatment, test compounds (35 μL of a suspension of 0.0032 or 0.016 mg/mL in physiological saline) were administered intra-nasally once daily for seven days; then 30 min before infection on day 0, and thereafter, either on days 1, 2 and 3 after infection, or on day 0 only. The effects of these treatment paradigms were compared with those obtained when treatment was restricted to one day and 30 min before inoculation and then on days 1, 2 and 3 post infection; or reduced still further to one day and 30 min before infection only.

[2] = test system: Aspergillus fumigatus (ATCC 13073); assay: Survival of severely immunocompromised, neutropenic mice infected with Aspergillus fumigatus, monotherapy or combination; conditions: Compound (I) 0.4 mg/mL (in), Posaconazole 1 mg/kg (po), once daily days 1-6
Experimental: On day 0, animals were infected intranasally with 35 μL of the spore suspension (1.67×10^8 spores/mL in physiological saline) of Aspergillus fumigatus (ATCC 13073 [strain: NIH 5233]). Compound (I) prepared as a suspension in isotonic saline (0.4 mg/mL) was dosed once daily by an intra-nasal injection (35 μL/mouse) on days 1-6 after infection. Posaconazole (1 mg/kg) was given orally once daily on days 1-6 after infection. Body weight and survival were monitored daily up to day 7.

[3] = test system: Aspergillus fumigatus (ATCC 13073); assay: IFNγ, IL-17 and MDA levels in BALF of Aspergillus fumigatus infected mice; conditions: for ID50, IFNγ in BALF / ID50, IL-17 in BALF / ID50, MDA in BALF: Prophylactic Regimen
Experimental: as §1, §2
as §3, with “([…])” for “(35 μL of a suspension of 0.08-2.00 mg/mL in physiological saline)”
Six hours after the last dose, animals were anesthetised, the trachea was cannulated and BALF was collected. The total number of alveolar cells was determined using a haemocytometer, and the numbers of alveolar macrophages and neutrophils were determined by FACS analysis (EPICS® ALTRA II, Beckman Coulter, Inc., Fullerton, Calif., USA) using anti-mouse MOMA2-FITC (macrophage) or anti-mouse 7/4 (neutrophil), respectively, as previously reported (Kimura et al., 2013). The levels of IFN-γ and IL-17 in BALF, and IL-6 and TNFα in serum were determined using Quantikine® mouse IFN-γ, IL-17, IL-6 or TNF-α ELISA kit (R&D systems, Inc., Minneapolis, Minn., USA) respectively. MDA, an oxidative stress marker, was assayed using OxiSelect® TBARS Assay Kits (MDA Quantitation; Cell Biolabs Inc, San Diego, Calif., USA). Aspergillus GM in serum was determination using Platelia GM-EIA kits (Bio-Rad Laboratories, Redmond, Wash., USA). Cut-off index was calculated by the formula: Cut-off index=OD in sample/OD in cut-off control provided in kit. For tissue fungal load assays, 100 mg of lung tissue was removed aseptically and homogenized in 0.2 mL of 0.1% agar in sterile distilled water. Serially diluted lung homogenates were plated on Malt agar plates (50 μL/plate), and incubated at 24±1° C. for 72 to 96 h. The colonies of A. fumigatus on each plate was counted and the fungal titre presented as CFU per gram of lung tissue.

[4] = prophylactic, 0.08 mg/mL intra-nasally
[5] = prophylactic, 0.4 mg/mL intra-nasally
[6] = prophylactic, 2 mg/mL intra-nasally
[7] = therapeutic, 0.4 mg/mL intra-nasally
[8] = therapeutic, 2 mg/mL intra-nasally
[9] = therapeutic, 10 mg/mL intra-nasally

With `CC[C@@H]([C@H](C)O)n1ncn(-c2ccc(N3CCN(c4ccc(OC[C@@H]5CO[C@@](Cn6cncn6)(c6ccc(F)cc6F)C5)cc4)CC3)cc2)c1=O` [Posaconazole] the “% Inhibition of weight loss” value ([1]; Day 1) was 21%, the “Body weight loss caused by infection with A. fumigatus” value (“Body weight loss caused by infection” below) ([1]; Day 1) was 7.3 ± 2.0% and the “% Inhibition of weight loss” value ([1]; Day 2) was 6%. For the same compound, the “Body weight loss caused by infection” value ([1]; Day 2) was 13.4 ± 1.9%, the “% Inhibition of weight loss” value ([1]; Day 3) was 6% and the “Body weight loss caused by infection” value ([1]; Day 3) was 18.1 ± 2.0%. The Median survival [2] was 6.5 days, the “No. of survivors on day 7” value [2] was 0/6 and the “survivors on day 7 (%)” value [2] was 0%. For the same compound, the “ID50, IFNγ in BALF” value [3] was 220 µg/mL (≈ 314 µM), the “ID50, IL-17 in BALF” value [3] was 610 µg/mL (≈ 870 µM) and the “ID50, MDA in BALF” value [3] was 690 µg/mL (≈ 985 µM).
`Cc1cc(N2CCN(c3ccc(C(=O)Nc4ccc(F)cc4)cc3)CC2)ccc1OC[C@@H]1CO[C@@](Cn2cncn2)(c2ccc(F)cc2F)C1` [Compound (I), 4-(4-(4-(((3R,5R)-5-((1H-1,2,4-triazol-1-yl)methyl)-5-(2,4-difluorophenyl)tetrahydrofuran-3-yl)methoxy)-3-methylphenyl)piperazin-1-yl)-N-(4-fluorophenyl)benzamide] was tested, and the “% Inhibition of weight loss” value ([1]; Day 1) was 34%, the “Body weight loss caused by infection” value ([1]; Day 1) was 6.1 ± 1.8% and the “% Inhibition of weight loss” value ([1]; Day 2) was 39%. For the same compound, the “Body weight loss caused by infection” value ([1]; Day 2) was 8.7 ± 2.5%, the “% Inhibition of weight loss” value ([1]; Day 3) was 42% and the “Body weight loss caused by infection” value ([1]; Day 3) was 11.1 ± 5.6%. For the same compound, the Median survival [2] was 6 days, the “No. of survivors on day 7” value [2] was 0/6 and the “survivors on day 7 (%)” value [2] was 0%. The “ID50, IFNγ in BALF” value [3] was less than 80 µg/mL, the “ID50, IL-17 in BALF” value [3] was 74 µg/mL (≈ 108 µM) and the “ID50, MDA in BALF” value [3] was 110 µg/mL (≈ 161 µM). For the same compound, the “IFNγ concentration in BALF” value [3, 4] was 3.7 ± 1.7 pg/mL, the “IFNγ in BALF, % Inhibition” value [3, 4] was 60% and the “IL-17 concentration in BALF” value [3, 4] was 9.8 ± 5.3 pg/mL. The “IL-17 in BALF, % Inhibition” value [3, 4] was 51%, the “MDA concentration in BALF” value [3, 4] was 0.96 ± 0.32 µg/mL and the “MDA in BALF, % Inhibition” value [3, 4] was 47%. The “IFNγ concentration in BALF” value [3, 5] was 3.0 ± 0.8 pg/mL, the “IFNγ in BALF, % Inhibition” value [3, 5] was 67% and the “IL-17 concentration in BALF” value [3, 5] was 6.7 ± 4.9 pg/mL. The “IL-17 in BALF, % Inhibition” value [3, 5] was 66%, the “MDA concentration in BALF” value [3, 5] was 0.57 ± 0.22 µg/mL and the “MDA in BALF, % Inhibition” value [3, 5] was 68%. The “IFNγ concentration in BALF” value [3, 6] was 2.5 ± 0.3 pg/mL, the “IFNγ in BALF, % Inhibition” value [3, 6] was 73% and the “IL-17 concentration in BALF” value [3, 6] was 3.2 ± 0.8 pg/mL. The “IL-17 in BALF, % Inhibition” value [3, 6] was 84%, the “MDA concentration in BALF” value [3, 6] was 0.34 ± 0.05 µg/mL and the “MDA in BALF, % Inhibition” value [3, 6] was 81%. For the same compound, the “IFNγ concentration in BALF” value [3, 7] was 4.3 ± 2.2 pg/mL, the “IFNγ in BALF, % Inhibition” value [3, 7] was 53% and the “IL-17 concentration in BALF” value [3, 7] was 8.5 ± 2.9 pg/mL. For the same compound, the “IL-17 in BALF, % Inhibition” value [3, 7] was 57%, the “MDA concentration in BALF” value [3, 7] was 0.45 ± 0.10 µg/mL and the “MDA in BALF, % Inhibition” value [3, 7] was 75%. The “IFNγ concentration in BALF” value [3, 8] was 3.3 ± 0.8 pg/mL, the “IFNγ in BALF, % Inhibition” value [3, 8] was 64% and the “IL-17 concentration in BALF” value [3, 8] was 4.0 ± 0.8 pg/mL. For the same compound, the “IL-17 in BALF, % Inhibition” value [3, 8] was 80%, the “MDA concentration in BALF” value [3, 8] was 0.37 ± 0.10 µg/mL and the “MDA in BALF, % Inhibition” value [3, 8] was 79%. For the same compound, the “IFNγ concentration in BALF” value [3, 9] was 2.1 ± 0.3 pg/mL, the “IFNγ in BALF, % Inhibition” value [3, 9] was 77% and the “IL-17 concentration in BALF” value [3, 9] was 2.9 ± 0.7 pg/mL. The “IL-17 in BALF, % Inhibition” value [3, 9] was 85%, the “MDA concentration in BALF” value [3, 9] was 0.25 ± 0.05 µg/mL and the “MDA in BALF, % Inhibition” value [3, 9] was 86%.
